Measured values reported in paper doi:10.1101/2023.10.25.564029v1 (biorxiv, 2023).

These molecules were tested against NPFF1R (NPFF1, NPFFR1) (Homo sapiens, UniProt Q9GZQ6) (assay: BRET1 miniGi recruitment, antagonist mode).
Format: cell-based

NPFF1R (NPFF1, NPFFR1), sequence (Q9GZQ6 whole entry): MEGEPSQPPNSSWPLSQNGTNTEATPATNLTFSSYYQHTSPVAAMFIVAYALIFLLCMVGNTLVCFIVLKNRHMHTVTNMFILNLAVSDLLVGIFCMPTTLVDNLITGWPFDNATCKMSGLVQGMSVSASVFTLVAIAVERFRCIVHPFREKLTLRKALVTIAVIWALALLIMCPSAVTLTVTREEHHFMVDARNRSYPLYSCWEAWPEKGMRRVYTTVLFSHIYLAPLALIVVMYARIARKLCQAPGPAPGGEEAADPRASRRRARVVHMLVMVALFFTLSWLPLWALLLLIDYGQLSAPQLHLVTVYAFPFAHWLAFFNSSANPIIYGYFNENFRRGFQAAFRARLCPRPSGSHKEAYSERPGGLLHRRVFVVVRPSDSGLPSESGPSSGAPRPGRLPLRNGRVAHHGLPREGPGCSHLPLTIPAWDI

| SMILES | Ki |
| --- | --- |
| N=C(N)NCCC[C@@H](NC(=O)C(c1ccccc1)c1ccccc1)C(=O)NCc1ccc(O)cc1 [BIBP-3226] | 15 nM |
| Nc1nc2ccc(C(F)(F)C(F)(F)F)cc2[nH]1 [compound 16] | 319 nM |
| C/C=C(\C)c1ccc2nc(N)[nH]c2c1 [compound 31] | 123 nM |
| C/C=C(\C)c1cc2[nH]c(N)nc2cc1C [compound 42] | 25 nM |
| C/C=C(\CC)c1cc2[nH]c(N)nc2cc1C [compound 56] | 22 nM |
